Where a SMILES comes first, the peptide text is derived from it. [ ]: non-standard residue; d: D form. Tic = O=C(O)[C@@H]1Cc2ccccc2CN1; Abu = CC[C@H](N)C(=O)O
What was measured:
[1] = tested on: primordial follicles of ovarian cortex; test: Culture of ewe ovarian cortex fragments for 10 days: start of growth of primordial follicles; format: cell-based; settings: for start of growth of the primordial follicles: 10 days culture, vs control fragments; for number of primary follicles / number of primordial follicles over time: D0-D10
Description: Ovaries of adult ewes are collected immediately after slaughter. The ovaries are placed in an organ transport medium without serum (X-vivo, Bio Whittaker, Walkersville, Md., USA) at 10° C. and transported to the laboratory. Approximately 1 h after removal, the cortex is isolated from the medulla then fractionated into slices of 2 mm thickness (1 cm^2, average weight of 212 mg) after rinsing in new X-vivo. The cortex fragments are cultured in an oven under 5% oxygen for 10 days in well plates in the presence of DMEM. The medium is changed every 2 days.
The procedure used is the same as for Example 1, except that the somatostatin is replaced with one of its agonist analogues, namely the synthetic peptide of formula c[Tic-Tyr-DTrp-Lys-Abu-Phe] (hereafter AG1 peptide).
The procedure used is the same as for Example 1, except that the somatostatin is replaced by one of its antagonist analogues, namely the synthetic peptide of formula Cpa-c(DCys-3-Pal-DTrp-NMeLys-Thr-Cys)-2-Nal-NH2 (hereafter ANT1 peptide).

[2] = tested on: pituitary cells producing LH and FSH; preovulatory follicles; settings: rats, in vivo administration; cited from earlier work
granulosa cells [3] = settings: in vitro, model of granulosa cells; cited from earlier work
granulosa cells [4] = settings: pig granulosa cells; cited from earlier work
preovulatory oocyte = settings: pigs; cited from earlier work
[5] = tested on: granulosa cells from preovulatory follicles; settings: women, in vitro; cited from earlier work
[6] = women, in vivo; cited from earlier work
[7] = co-administered with FSH; infertile patients with polycystic ovary syndrome; cited from earlier work
[8] = Envisaged case: patient with polycystic ovary syndrome treated with lanreotide acetate; format: in vivo, women; settings: 120 mg/month

## CC[C@@H]1NC(=O)[C@H](CCCCN)NC(=O)[C@@H](Cc2c[nH]c3ccccc23)NC(=O)[C@H](Cc2ccc(O)cc2)NC(=O)[C@@H]2Cc3ccccc3CN2C(=O)[C@H](Cc2ccccc2)NC1=O [AG1 peptide, c[Tic-Tyr-DTrp-Lys-Abu-Phe]] (cyclo([Tic]Y[dW]K[Abu]F))
[1]; AG1 peptide 10^−9 M, FIG. 4
  start of growth of the primordial follicles: very significantly inhibits
  number of primary follicles: absence of increase
  number of primordial follicles over time: maintenance over time

## C[C@H](N)C(=O)NCC(=O)N[C@H]1CSSC[C@@H](C(=O)O)NC(=O)[C@H](CO)NC(=O)[C@H]([C@@H](C)O)NC(=O)[C@H](Cc2ccccc2)NC(=O)[C@H]([C@@H](C)O)NC(=O)[C@H](CCCCN)NC(=O)[C@H](Cc2c[nH]c3ccccc23)NC(=O)[C@H](Cc2ccccc2)NC(=O)[C@H](Cc2ccccc2)NC(=O)[C@H](CC(N)=O)NC(=O)[C@H](CCCCN)NC1=O [SST]
[2]
  number of pituitary cells producing LH and FSH and number of preovulatory follicles in the ovary: seems to reduce
Granulosa cells [3]
  aromatase and production of progesterone, stimulated by FSH: inhibits
Granulosa cells [4]
  increase in cAMP induced by LH and forskolin: inhibits
Preovulatory oocyte
  nuclear maturation of the preovulatory oocyte: seems to inhibit
[5]
  synthesis of IGF-BP1 and of progesterone: inhibiting
[6]
  secretion of LH by the pituitary, production of androgens and IGF-1 serum levels: capable of reducing
  serum levels of IGF-BP3: increases
[7]
  follicle growth induced by the administration of FSH: not however accompanied by a significant impact

## C[C@H](N)C(=O)NCC(=O)N[C@H]1CSSC[C@@H](C(=O)O)NC(=O)[C@H](CO)NC(=O)[C@H]([C@@H](C)O)NC(=O)[C@H](Cc2ccccc2)NC(=O)[C@H]([C@@H](C)O)NC(=O)[C@H](CCCCN)NC(=O)[C@H](Cc2c[nH]c3ccccc23)NC(=O)[C@H](Cc2ccccc2)NC(=O)[C@H](Cc2ccccc2)NC(=O)[C@H](CC(N)=O)NC(=O)[C@H](CCCCN)NC1=O [SST14]
[1]; SST14 10^−9 M to 10^−6 M, FIGS. 1 and 2
  start of growth of the primordial follicles: very significantly inhibits
[1]; SST14 10^−9 M to 10^−6 M, FIG. 1
  number of primordial follicles over time: maintenance over time
[1]; SST14 10^−9 M to 10^−6 M, FIG. 2
  number of primary follicles: absence of increase

## CC(C)[C@@H]1NC(=O)[C@H](CCCCN)NC(=O)[C@@H](Cc2c[nH]c3ccccc23)NC(=O)[C@H](Cc2ccc(O)cc2)NC(=O)[C@@H](NC(=O)[C@H](N)Cc2ccc3ccccc3c2)CSSC[C@@H](C(=O)N[C@H](C(N)=O)[C@@H](C)O)NC1=O [lanreotide acetate]
[8]; 4th month of treatment
  ovarian volume and number of antral follicles (ultrasound): reduction
[8]; 8th month of treatment
  pregnancy test: positive
[8]; after 3 months of treatment
  periods: spontaneous periods
